These compounds were tested on HeLa cells (assay: Potentiation Factor (PF50): MMS growth inhibition, SRB assay). Settings: MMS 0-10 μg/ml, PARP inhibitor at 30 nM, ratio IC50 control / IC50 + inhibitor.
Assay type: cell-based
Experimental: The Potentiation Factor (PF50) for compounds is calculated as a ratio of the IC50 of control cell growth divided by the IC50 of cell growth+PARP inhibitor. Growth inhibition curves for both control and compound treated cells are in the presence of the alkylating agent methyl methanesulfonate (MMS). The test compounds were used at a fixed concentration of 0.2 micromolar. The concentrations of MMS were over a range from 0 to 10 μg/ml.
2,000 HeLa cells were seeded into each well of a flat-bottomed 96-well microtiter plate in a volume of 100 μl and incubated for 6 hours at 37° C. Cells were either replaced with media alone or with media containing PARP inhibitor at a final concentration of 30 nM or 200 nM. […] Cells treated with PARP inhibitor alone were used to assess the growth inhibition by the PARP inhibitor.
Cells were left for a further 16 hours before replacing the media and allowing the cells to grow for a further 72 hours at 37° C. The media was then removed and the cells fixed with 100 μl of ice cold 10% (w/v) trichloroacetic acid. The plates were incubated at 4° C. for 20 minutes and then washed four times with water. Each well of cells was then stained with 100 μl of 0.4% (w/v) SRB in 1% acetic acid for 20 minutes before washing four times with 1% acetic acid. Plates were then dried for 2 hours at room temperature. The dye from the stained cells was solubilized by the addition of 100 μl of 10 mM Tris Base into each well.

First: O=C(c1cc(Cc2n[nH]c(=O)c3ccccc23)ccc1F)N1CCC(Oc2ccc(F)cc2)CC1 [Compound 2c]
Second: COc1ccc(OC2CCN(C(=O)c3cc(Cc4n[nH]c(=O)c5ccccc45)ccc3F)CC2)cc1 [Compound 8b, 4-[[4-fluoro-3-[4-(4-methoxyphenoxy)piperidine-1-carbonyl]phenyl]methyl]-2H-phthalazin-1-one]
The “PF50 (30 nM)” value of the first is lower: 1.9 for the first, 23.6 for the second.

Compared with `O=C(c1cc(Cc2n[nH]c(=O)c3ccccc23)ccc1F)N1CCC(OCC2CC2)CC1` [Compound 2g], `O=C(c1cc(Cc2n[nH]c(=O)c3ccccc23)ccc1F)N1CCC(OCC2CCCO2)CC1` (stereo not drawn) [Compound 20, 4-[[4-fluoro-3-[4-(oxolan-2-ylmethoxy)piperidine-1-carbonyl]phenyl]methyl]-2H-phthalazin-1-one] is lower in “PF50 (30 nM)” value: 4.3 for the first, 2.0 for the second.

Going from `CC(C)COC1CCN(C(=O)c2cc(Cc3n[nH]c(=O)c4ccccc34)ccc2F)CC1` [Compound 2h] to `CC(C)OC1CCN(C(=O)c2cc(Cc3n[nH]c(=O)c4ccccc34)ccc2F)CC1` [Compound 11, 4-(4-fluoro-3-(4-isopropoxypiperidine-1-carbonyl)benzyl)phthalazin-1(2H)-one], the “PF50 (30 nM)” value rises from 2.9 to 33.6.

First: O=C(c1cc(Cc2n[nH]c(=O)c3ccccc23)ccc1F)N1CCC(Oc2ccccn2)CC1 [Compound 2i]
Second: O=C(c1cc(Cc2n[nH]c(=O)c3ccccc23)ccc1F)N1CCC(Oc2ccncn2)CC1 [Compound 26a, 4-(4-fluoro-3-(4-(pyrimidin-4-yloxy)piperidine-1-carbonyl)benzyl)phthalazin-1(2H)-one]
The “PF50 (30 nM)” value of the first is higher: 16.7 for the first, 3.7 for the second.

Compared with `O=C(c1cc(Cc2n[nH]c(=O)c3ccccc23)ccc1F)N1CCC(Oc2ccncc2)CC1` [Compound 2j], `O=C(c1cc(Cc2n[nH]c(=O)c3ccccc23)ccc1F)N1CCC(Oc2ccc(Cl)nc2)CC1` [Compound 26m] is lower in “PF50 (30 nM)” value: 3.0 for the first, 2.4 for the second.

`O=C(c1cccc(Cc2n[nH]c(=O)c3c(F)ccc(F)c23)c1)N1CCC(OCC2CC2)CC1` [Compound 4a] and `CC(C)COC1CCN(C(=O)c2cccc(Cc3n[nH]c(=O)c4c(F)ccc(F)c34)c2)CC1` [Compound 4c] are the same in “PF50 (30 nM)” value: 1.2 for the first, 1.2 for the second.

Compared with `O=C(c1cccc(Cc2n[nH]c(=O)c3c(F)ccc(F)c23)c1)N1CCC(Oc2ccccn2)CC1` [Compound 4b], `NC(=O)c1ccnc(OC2CCN(C(=O)c3cc(Cc4n[nH]c(=O)c5ccccc45)ccc3F)CC2)c1` [Compound 26g] is lower in “PF50 (30 nM)” value: 2.2 for the first, 1.6 for the second.

First: O=C(c1cc(Cc2n[nH]c(=O)c3ccccc23)ccn1)N1CCC(Oc2ccc(Cl)cc2)CC1 [Compound 6a]
Second: O=C(c1cc(Cc2n[nH]c(=O)c3ccccc23)ccn1)N1CCC(Oc2ccc(F)cc2)CC1 [Compound 6b]
The “PF50 (30 nM)” value of the first is higher: 1.7 for the first, 1.5 for the second.

First: COC1CCN(C(=O)c2cc(Cc3n[nH]c(=O)c4ccccc34)ccn2)CC1 [Compound 6c]
Second: CC(C)OC1CCN(C(=O)c2cc(Cc3n[nH]c(=O)c4ccccc34)ccn2)CC1 [Compound 25, 4-[[2-(4-propan-2-yloxypiperidine-1-carbonyl)pyridin-4-yl]methyl]-2H-phthalazin-1-one]
The “PF50 (30 nM)” value of the first is lower: 1.2 for the first, 2.1 for the second.

Compared with `O=C(c1cc(Cc2n[nH]c(=O)c3ccccc23)ccn1)N1CCC(Oc2ccccc2)CC1` [Compound 6d], `O=C(c1cc(Cc2n[nH]c(=O)c3ccccc23)ccn1)N1CCC(Oc2ccncc2)CC1` [Compound 6e] is higher in “PF50 (30 nM)” value: 1.4 for the first, 1.5 for the second.

Going from `O=C(c1cc(Cc2n[nH]c(=O)c3ccccc23)ccn1)N1CCC(Oc2ccccn2)CC1` [Compound 6f] to `O=C(c1cc(Cc2n[nH]c(=O)c3ccccc23)ccc1F)N1CCC(Oc2cnccn2)CC1` [Compound 26d], the “PF50 (30 nM)” value rises from 1.8 to 4.0.

First: COCCOC1CCN(C(=O)c2cc(Cc3n[nH]c(=O)c4ccccc34)ccc2F)CC1 [Compound 7, 4-(4-fluoro-3-(4-(2-methoxyethoxy)piperidine-1-carbonyl)benzyl)phthalazin-1(2H)-one]
Second: CCCOC1CCN(C(=O)c2cc(Cc3n[nH]c(=O)c4ccccc34)ccc2F)CC1 [Compound 8c, 4-[[4-fluoro-3-(4-propoxypiperidine-1-carbonyl)phenyl]methyl]-2H-phthalazin-1-one]
The “PF50 (30 nM)” value of the first is lower: 4.0 for the first, 12.2 for the second.

Going from `COc1cccc(OC2CCN(C(=O)c3cc(Cc4n[nH]c(=O)c5ccccc45)ccc3F)CC2)c1` [Compound 8a, 4-[[4-fluoro-3-[4-(3-methoxyphenoxy)piperidine-1-carbonyl]phenyl]methyl]-2H-phthalazin-1-one] to `COc1ccnc(OC2CCN(C(=O)c3cc(Cc4n[nH]c(=O)c5ccccc45)ccc3F)CC2)c1` [Compound 26k], the “PF50 (30 nM)” value rises from 1.6 to 26.8.

First: COc1ccccc1OC1CCN(C(=O)c2cc(Cc3n[nH]c(=O)c4ccccc34)ccc2F)CC1 [Compound 8d, 4-[[4-fluoro-3-[4-(2-methoxyphenoxy)piperidine-1-carbonyl]phenyl]methyl]-2H-phthalazin-1-one]
Second: O=C(c1cc(Cc2n[nH]c(=O)c3ccccc23)ccc1F)N1CCC(OCc2ccccc2)CC1 [Compound 8e, 4-[[4-fluoro-3-(4-phenylmethoxypiperidine-1-carbonyl)phenyl]methyl]-2H-phthalazin-1-one]
The “PF50 (30 nM)” value of the first is lower: 1.2 for the first, 1.4 for the second.

Compared with `N#CCc1ccc(OC2CCN(C(=O)c3cc(Cc4n[nH]c(=O)c5ccccc45)ccc3F)CC2)cc1` [Compound 8f, 2-[4-[1-[2-fluoro-5-[(4-oxo-3H-phthalazin-1-yl)methyl]benzoyl]piperidin-4-yl]oxyphenyl]acetonitrile], `N#Cc1ccc(OC2CCN(C(=O)c3cc(Cc4n[nH]c(=O)c5ccccc45)ccc3F)CC2)nc1` [Compound 26c] is higher in “PF50 (30 nM)” value: 4.1 for the first, 32.4 for the second.

Compared with `O=C(c1cc(Cc2n[nH]c(=O)c3ccccc23)ccc1F)N1CCC2(CC1)OCc1ccccc12` [Compound 9, 4-(4-fluoro-3-(3H-spiro[isobenzofuran-1,4′-piperidine]-1′-ylcarbonyl)benzyl)phthalazin-1(2H)-one], `COC1(C)CCN(C(=O)c2cc(Cc3n[nH]c(=O)c4ccccc34)ccc2F)CC1` [Compound 24, 4-[[4-fluoro-3-(4-methoxy-4-methylpiperidine-1-carbonyl)phenyl]methyl]-2H-phthalazin-1-one] is higher in “PF50 (30 nM)” value: 1.3 for the first, 1.5 for the second.

Going from `CC(C)OC1CCN(C(=O)c2cccc(Cc3n[nH]c(=O)c4ccccc34)c2)CC1` [Compound 12] to `O=C(c1cc(Cc2n[nH]c(=O)c3ccccc23)ccc1F)N1CCC(OC(F)F)CC1` [Compound 19, 4-(3-(4-(difluoromethoxy)piperidine-1-carbonyl)-4-fluorobenzyl)phthalazin-1(2H)-one], the “PF50 (30 nM)” value rises from 2.1 to 2.5.

Going from `O=C(c1cc(Cc2n[nH]c(=O)c3ccccc23)ccc1F)N1CCC(OC2CCC2)CC1` [Compound 15, 4-(3-(4-cyclobutoxypiperidine-1-carbonyl)-4-fluorobenzyl)phthalazin-1(2H)-one] to `O=C(c1cc(Cc2n[nH]c(=O)c3ccccc23)ccc1F)N1CCC(OC2CCCC2)CC1` [Compound 36, 4-(3-(4-(cyclopentyloxy)piperidine-1-carbonyl)-4-fluorobenzyl)phthalazin-1(2H)-one], the “PF50 (30 nM)” value rises from 4.4 to 14.5.

Compared with `C=CCOC1CCN(C(=O)c2cc(Cc3n[nH]c(=O)c4ccccc34)ccc2F)CC1` [Compound 16], `O=C(c1cc(Cc2n[nH]c(=O)c3ccccc23)ccc1F)N1CCC(OC(CF)CF)CC1` [Compound 29, 4-(3-(4-(1,3-difluoropropan-2-yloxy)piperidine-1-carbonyl)-4-fluorobenzyl)phthalazin-1(2H)-one] is higher in “PF50 (30 nM)” value: 3.4 for the first, 25.9 for the second.

Going from `Cc1ccc(OC2CCN(C(=O)c3cc(Cc4n[nH]c(=O)c5ccccc45)ccc3F)CC2)nn1` [Compound 26b] to `Cc1nccnc1OC1CCN(C(=O)c2cc(Cc3n[nH]c(=O)c4ccccc34)ccc2F)CC1` [Compound 26h], the “PF50 (30 nM)” value rises from 1.5 to 12.7.

Going from `O=C(c1cc(Cc2n[nH]c(=O)c3ccccc23)ccc1F)N1CCC(Oc2ncccn2)CC1` [Compound 26e] to `N#Cc1nccnc1OC1CCN(C(=O)c2cc(Cc3n[nH]c(=O)c4ccccc34)ccc2F)CC1` [Compound 26l], the “PF50 (30 nM)” value falls from 2.7 to 1.2.

Compared with `N#Cc1ccnc(OC2CCN(C(=O)c3cc(Cc4n[nH]c(=O)c5ccccc45)ccc3F)CC2)c1` [Compound 26f], `Cc1cnc(OC2CCN(C(=O)c3cc(Cc4n[nH]c(=O)c5ccccc45)ccc3F)CC2)c(C)n1` [Compound 26i] is higher in “PF50 (30 nM)” value: 4.4 for the first, 8.0 for the second.

With `Cc1cnc(C)c(OC2CCN(C(=O)c3cc(Cc4n[nH]c(=O)c5ccccc45)ccc3F)CC2)n1` [Compound 26j] the “PF50 (30 nM)” value was 1.2.

Same assay, conditions: MMS 0-10 μg/ml, PARP inhibitor at 200 nM, ratio IC50 control / IC50 + inhibitor

Compared with `O=C(c1cc(Cc2n[nH]c(=O)c3ccccc23)ccc1F)N1CCC(O)CC1` [Compound 2a, 4-(4-fluoro-3-(4-hydroxypiperidine-1-carbonyl)benzyl)phthalazin-1(2H)-one], `O=C(c1cc(Cc2n[nH]c(=O)c3ccccc23)ccc1F)N1CCC(OC2CCCC2)CC1` [Compound 36, 4-(3-(4-(cyclopentyloxy)piperidine-1-carbonyl)-4-fluorobenzyl)phthalazin-1(2H)-one] is higher in “PF50 (200 nM)” value: 3 for the first, 24.3 for the second.

First: O=C(c1cc(Cc2n[nH]c(=O)c3ccccc23)ccc1F)N1CCC(Oc2ccc(F)cc2)CC1 [Compound 2c]
Second: O=C(c1cc(Cc2n[nH]c(=O)c3ccccc23)ccn1)N1CCC(Oc2ccc(F)cc2)CC1 [Compound 6b]
The “PF50 (200 nM)” value of the first is higher: 7 for the first, 3.5 for the second.

Compared with `O=C(c1cc(Cc2n[nH]c(=O)c3ccccc23)ccn1)N1CCC(Oc2ccc(Cl)cc2)CC1` [Compound 6a], `O=C(c1cc(Cc2n[nH]c(=O)c3ccccc23)ccn1)N1CCC(Oc2ccccc2)CC1` [Compound 6d] is lower in “PF50 (200 nM)” value: 4.2 for the first, 3.5 for the second.

Going from `COC1CCN(C(=O)c2cc(Cc3n[nH]c(=O)c4ccccc34)ccn2)CC1` [Compound 6c] to `O=C(c1cc(Cc2n[nH]c(=O)c3ccccc23)ccn1)N1CCC(Oc2ccncc2)CC1` [Compound 6e], the “PF50 (200 nM)” value rises from 1.5 to 1.9.

With `O=C(c1cc(Cc2n[nH]c(=O)c3ccccc23)ccn1)N1CCC(Oc2ccccn2)CC1` [Compound 6f] the “PF50 (200 nM)” value was 5.0.

— patent US8129380B2, “Phthalazinone derivatives” (AstraZeneca AB, priority 2008, dated 2012)
